# Experimental data: patent US20240115586A1, “THERAPEUTIC AGENT FOR PULMONARY FIBROSIS” (SANSHO CO. LTD., priority 2020, published 2024)
# Tested on: bleomycin-induced pulmonary fibrosis model mice
# Test: Effect on right lung wet weight, dry weight and hydroxyproline in bleomycin-induced pulmonary fibrosis model mice
# Format: in vivo, Mouse Crl:CD1(ICR)
# Settings: Day 28, mean ± S.E.M., N=9; for Dry weight of right lung: Control 0.0348 ± 0.0017, Normal 0.0236 ± 0.0007; for Wet weight of right lung: Control 0.1735 ± 0.0087, Normal 0.1224 ± 0.0029; for Hydroxyproline (right lung): Control 354.9 ± 15.1, Normal 266.9 ± 6.4
# Description: • Japanese Pharmacopoeia: Physiological saline solution (saline solution) • (2) Test system • Mouse Crl:CD1(ICR), 45 mice, male, purchased from Charles River Japan K.K. (11 weeks old at time of purchase)
# The test substance was divided into 6 mg×28 doses prior to the day of administration. Dose solution was prepared on the day of administration. To one bottle of the previously aliquoted test substance (6 mg), 6 mL of saline solution was added and mixed by inverting. The samples were heated (approximately 40° C.) and sonicated until dissolution was visually confirmed (1 mg/mL solution). The 1 mg/mL solution was divided into 0.5 mL portions, and 4.5 mL of saline solution was added. Dissolution was confirmed by inverting and mixing (0.1 mg/mL solution).
# The route of administration was intraperitoneal administration.
# It was administered once per day for 28 days. Administration at the time of preparation of the pulmonary fibrosis model (Day 0 to Day 4) was before administration of bleomycin.
# 10 mL/kg was administered intraperitoneally using a 1 mL syringe and needle (Terumo Corporation).
# The bleomycin solution was administered into the tail vein of mice at a dose volume of 5 mL/kg (bleomycin dose: 15 mg/kg) once a day for 5 days. The volume of administered liquid was calculated based on the latest body weight and calculated to the nearest 0.01 mL (rounded to the third decimal place). The normal group was administered physiological saline at a volume of 5 mL/kg.
# After lethal exsanguination, the right bronchial bifurcation was ligated, and only the right lung was removed. The wet weight of the excised right lung was measured. After weighing, the right lung was minced. After that, the right lung was dried in a dry heat sterilizer set at 72° C. for about 72 hours, and the dry weight of the right lung was measured. After measuring the dry weight, it was stored in an ultra-low temperature freezer (permissible range: −90 to −65° C.) until the amount of hydroxyproline was measured. The left lung was ligated and fixed after a cannula was inserted into the trachea, and a 10% phosphate-buffered formalin solution was injected through the cannula at a pressure of 15 cm H2O to expand and fix the lung tissue. Lung sampling was performed on animals from which blood collection was performed. A fixed left lung is undergoing histopathological examination.
# The hydroxyproline content of the right lung cryopreserved in section (6-5) was measured. 2 mL of HCl for hydrolysis was added to the dried right lung and the sample was hydrolyzed in an autoclave at about 121° C. for 30 minutes. After that, it was neutralized with 2.5 N NaOH (pH about 6 to 7: pH test paper was used for confirmation). By measuring the tare weight in advance and measuring the weight after neutralization, the amount (g) of the sample after neutralization was calculated. The sample after neutralization was appropriately diluted with water for injection, and 2 mL of the solution was used as a sample for measurement of HYP content.
# 1 mL of chloramine T reagent was added to 2 mL of the HYP standard solution and the mixture was left stand at room temperature for 20 minutes. Then, 1 mL of perchloric acid reagent was added and the mixture was left stand at room temperature for 5 minutes. After adding 1 mL of p-dimethylaminobenzaldehyde reagent and heating at 60° C. for 20 minutes, the absorbance at 557 nm of the supernatant which was obtained by filtration using a filter was measured with a spectrophotometer to create a calibration curve.
# For 2 mL of each sample for measurement of HYP content, the absorbance was measured in the same manner as described in Section 3.6.6.2, and the HYP content (μg/mL) was calculated from the measured values based on the calibration curve obtained in Section 3.6.6.2. Each sample for measurement of HYP content was diluted 20-fold and was measured. Single measurement was used. […]
# [1] = 2ccPA 1 mg/kg intraperitoneal once per day for 28 days
# [2] = 2ccPA 10 mg/kg intraperitoneal once per day for 28 days
substance,measurement,setting,value
2-Carbacyclic phosphatidic acid [2ccPA],Dry weight of right lung,[1],0.0327 ± 0.0021 g
same,Wet weight of right lung,[1],0.1599 ± 0.0113 g
same,Hydroxyproline (right lung),[1],331.2 ± 20.0 μg/lung
same,Dry weight of right lung,[2],0.0303 ± 0.0011 g
same,Wet weight of right lung,[2],0.1458 ± 0.0044 g
same,Hydroxyproline (right lung),[2],288.8 ± 11.1 μg/lung
